Test results as given in ChEMBL document CHEMBL1153169, “Structure-activity relationships of the ultrapotent vanilloid resiniferatoxin (RTX): The side chain benzylic methylene” (Bioorg Med Chem Lett, 2010).
pEC50, pIC50: −log10 of the molar value.

Biological target: T1, Transient receptor potential cation channel subfamily V member 1 (Homo sapiens, UniProt Q8NER1)
Assay: Antagonist activity at human TRPV1 expressed in HEK293 cells assessed as inhibition of intracellular calcium level
Type: functional, cell-based

T1 sequence (Q8NER1 whole entry): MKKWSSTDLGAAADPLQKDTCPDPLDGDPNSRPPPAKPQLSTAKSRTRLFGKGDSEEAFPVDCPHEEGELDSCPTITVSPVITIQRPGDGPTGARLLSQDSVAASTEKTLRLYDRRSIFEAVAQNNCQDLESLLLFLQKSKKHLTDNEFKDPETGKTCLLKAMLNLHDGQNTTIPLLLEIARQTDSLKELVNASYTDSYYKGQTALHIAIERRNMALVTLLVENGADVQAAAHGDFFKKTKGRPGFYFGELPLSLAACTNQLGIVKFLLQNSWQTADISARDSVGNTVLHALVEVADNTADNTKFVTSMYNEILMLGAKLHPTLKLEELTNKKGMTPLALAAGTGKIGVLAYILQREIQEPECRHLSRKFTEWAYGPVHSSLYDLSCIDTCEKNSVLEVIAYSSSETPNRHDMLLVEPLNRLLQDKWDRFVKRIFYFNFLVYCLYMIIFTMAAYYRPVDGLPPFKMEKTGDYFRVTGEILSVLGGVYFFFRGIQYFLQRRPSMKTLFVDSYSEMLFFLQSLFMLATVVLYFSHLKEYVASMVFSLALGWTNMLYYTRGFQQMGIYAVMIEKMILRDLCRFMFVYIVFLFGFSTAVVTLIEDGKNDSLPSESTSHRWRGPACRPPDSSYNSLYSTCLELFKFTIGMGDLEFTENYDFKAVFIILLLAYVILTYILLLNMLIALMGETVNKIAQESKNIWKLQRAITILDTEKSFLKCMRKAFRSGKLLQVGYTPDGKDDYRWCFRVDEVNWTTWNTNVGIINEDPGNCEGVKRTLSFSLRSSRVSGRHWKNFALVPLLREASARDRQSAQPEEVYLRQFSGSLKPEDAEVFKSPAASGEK

Row | Compound | pIC50
1 | C=C(C)[C@]12C[C@@H](C)[C@@]34O[C@](Cc5ccccc5)(O[C@@H]1[C@@H]3C=C(COC(=O)Cc1cc(I)c(O)c(OC)c1)C[C@]1(O)C(=O)C(C)=C[C@@H]41)O2 [IODORESINIFERATOXIN] | 5.40

Biological target: T1, Transient receptor potential cation channel subfamily V member 1
Assay: Agonist activity at human TRPV1 expressed in HEK293 cells assessed as increase in intracellular calcium level
Type: functional, cell-based

Row | Compound | pEC50
2 | C=C(C)[C@]12C[C@@H](C)[C@@]34O[C@](Cc5ccccc5)(O[C@@H]1[C@@H]3C=C(COC(=O)C(C)c1ccc(O)c(OC)c1)C[C@]1(O)C(=O)C(C)=C[C@@H]41)O2 (some centres undefined) | 9.01
3 | C=C(C)[C@]12C[C@@H](C)[C@@]34O[C@](Cc5ccccc5)(O[C@@H]1[C@@H]3C=C(COC(=O)Oc1ccc(O)c(OC)c1)C[C@]1(O)C(=O)C(C)=C[C@@H]41)O2 | 7.86
4 | C=C(C(=O)OCC1=C[C@H]2[C@H]3O[C@@]4(Cc5ccccc5)O[C@@]2([C@H](C)C[C@]3(C(=C)C)O4)[C@@H]2C=C(C)C(=O)[C@@]2(O)C1)c1ccc(O)c(OC)c1 | 9.82
5 | C=C(C)[C@]12C[C@@H](C)[C@@]34O[C@](Cc5ccccc5)(O[C@@H]1[C@@H]3C=C(COC(=O)Oc1cc(I)c(O)c(OC)c1)C[C@]1(O)C(=O)C(C)=C[C@@H]41)O2 | 11.33
6 | C=C(C)[C@]12C[C@@H](C)[C@@]34O[C@](Cc5ccccc5)(O[C@@H]1[C@@H]3C=C(COC(=O)C(OC)c1ccc(O)c(OC)c1)C[C@]1(O)C(=O)C(C)=C[C@@H]41)O2 (some centres undefined) | 7.76
7 | C=C(C)[C@]12C[C@@H](C)[C@@]34O[C@](Cc5ccccc5)(O[C@@H]1[C@@H]3C=C(COC(=O)C(OC(C)=O)c1ccc(O)c(OC)c1)C[C@]1(O)C(=O)C(C)=C[C@@H]41)O2 (some centres undefined) | 9.19
8 | C=C(C)[C@]12C[C@@H](C)[C@@]34O[C@](Cc5ccccc5)(O[C@@H]1[C@@H]3C=C(COC(=O)C(O)c1ccc(O)c(OC)c1)C[C@]1(O)C(=O)C(C)=C[C@@H]41)O2 (some centres undefined) | 7.72

Biological target: T1, Transient receptor potential cation channel subfamily V member 1
Assay: Selectivity ratio of EC50 for drug to capsaicin for human TRPV1 expressed in HEK293 cells assessed as increase in intracellular calcium level
Type: cell-based

Row | Compound | Ratio EC50
9 | C=C(C)[C@]12C[C@@H](C)[C@@]34O[C@](Cc5ccccc5)(O[C@@H]1[C@@H]3C=C(COC(=O)Oc1ccc(O)c(OC)c1)C[C@]1(O)C(=O)C(C)=C[C@@H]41)O2 | 3
